In data set [1] the test system is Escherichia coli. Put plainly: Antimicrobial activity against Escherichia coli JW55031 TolC mutant assessed as reduction in microbial growth incubated for 18 to 20 hrs by broth microdilution method. Background: Broth dilution looks for growth in wells or tubes with falling amounts of substance.
Data set [2] deals with Acinetobacter baumannii. Description: Antibacterial activity against Acinetobacter baumannii ATCC 19606 incubated for 18 to 20 hrs by broth microdilution method. As to conditions: time 18-20 hrs. It counts as functional.
Data set [3] concerns Klebsiella pneumoniae. Description: Antibacterial activity against Klebsiella pneumoniae ATCC 1706 incubated for 18 to 20 hrs by broth microdilution method. The data set is classed as functional. Particulars: time 18-20 hrs.
For data set [4], the system named is Pseudomonas aeruginosa. Put plainly: Synergistic antibacterial activity against Pseudomonas aeruginosa ATCC 15442 in presence of 0.25 times MIC of colistin incubated for 18 to 20 hrs by broth microdilution method. The data set is classed as functional. As to conditions: time 18-20 hrs.
Data set [5] relates to Escherichia coli. Put plainly: Synergistic antibacterial activity against Escherichia coli ATCC 25922 in presence of 0.25 times MIC of colistin incubated for 18 to 20 hrs by broth microdilution method. The data set is classed as functional. As to conditions: time 18-20 hrs.
The subject of data set [6] is Acinetobacter baumannii. Description: Synergistic antibacterial activity against Acinetobacter baumannii ATCC 19606 in presence of 0.25 times MIC of colistin incubated for 18 to 20 hrs by broth microdilution method. It counts as functional. Particulars: time 18-20 hrs.
Data set [7] has as its system Escherichia coli. Description: Antibacterial activity against Escherichia coli ATCC 25922 incubated for 18 to 20 hrs by broth microdilution method. It counts as functional. As to conditions: time 18-20 hrs.
Data set [8] concerns Escherichia coli. Put plainly: Antibacterial activity against wild type Escherichia coli BW25113 incubated for 18 to 20 hrs by broth microdilution method. The data set is classed as functional. Particulars: time 18-20 hrs.
The subject of data set [9] is Escherichia coli. Description: Synergistic antibacterial activity against wild type Escherichia coli BW25113 in presence of 0.25 times MIC of colistin incubated for 18 to 20 hrs by broth microdilution method. The data set is classed as functional. As to conditions: time 18-20 hrs.
The test system of data set [10] is Klebsiella pneumoniae. Description: Synergistic antibacterial activity against Klebsiella pneumoniae ATCC 1706 in presence of 0.25 times MIC of colistin incubated for 18 to 20 hrs by broth microdilution method. It counts as functional. As to conditions: time 18-20 hrs.
The test system of data set [11] is Pseudomonas aeruginosa. Description: Antibacterial activity against Pseudomonas aeruginosa ATCC 15442 incubated for 18 to 20 hrs by broth microdilution method. The data set is classed as functional. Particulars: time 18-20 hrs.
A further data set deals with Caco-2. Put plainly: Cytotoxicity against human Caco-2 cells assessed as reduction in cell viability incubated for 2 hrs by MTS assay. It counts as cell-based. As to conditions: caco-2, 2 h. On the technique in general: Tetrazolium assays rely on reduction of a dye to a coloured formazan, in cell work by metabolically active cells.
A further data set relates to Vero. Description: Cytotoxicity against African green monkey Vero cells assessed as reduction in cell viability incubated for 2 hrs by MTS assay. It counts as cell-based. Particulars: chlorocebus sabaeus.

Drawing on ChEMBL document CHEMBL4680116, “Development of benzimidazole-based derivatives as antimicrobial agents and their synergistic effect with colistin against gram-negative bacteria” (Eur J Med Chem, 2020), this text covers MIC and Activity for 36 compounds.

≈ marks a conversion by molar mass, not a printed value. A value given as a limit tells only on which side of the number the result lay.

The MIC is the lowest concentration found to suppress growth.

With `COc1ccc(-c2nc3ccccc3n2Cc2ccc(C)cc2)cc1`, in the data set with Escherichia coli [1], the MIC is over 128 µg/mL.
As to `Cc1ccc(Cn2c(-c3ccccc3)nc3ccccc32)cc1`, in the data set on Escherichia coli [1], the MIC was found to be 8 µg/mL.
As to `c1ccc(Cn2c(-c3ccccc3)nc3ccccc32)cc1`, in the data set with Escherichia coli [1], the MIC worked out at 16 µg/mL.
Take `CC(=O)Nc1cccc(-c2nc3ccccc3n2Cc2ccc(Cl)cc2)c1`: the minimum inhibitory concentration (MIC) in the data set on Escherichia coli [1] is over 128 µg/mL.
Regarding `CCCCCCCCCC(=O)N[C@@H](Cc1c[nH]c2ccccc12)C(=O)N[C@H](CC(N)=O)C(=O)N[C@@H](CC(=O)O)C(=O)N[C@@H]1C(=O)NCC(=O)N[C@@H](CCCN)C(=O)N[C@@H](CC(=O)O)C(=O)N[C@H](C)C(=O)N[C@@H](CC(=O)O)C(=O)NCC(=O)N[C@H](CO)C(=O)N[C@@H]([C@H](C)CC(=O)O)C(=O)N[C@@H](CC(=O)c2ccccc2N)C(=O)O[C@@H]1C`, the MIC against Acinetobacter baumannii [2], in the data set with Klebsiella pneumoniae [3], with Pseudomonas aeruginosa [4], in the data set with Escherichia coli [5], in the data set with Acinetobacter baumannii [6] and in the data set with Escherichia coli [7] was over 128 µg/mL each time. For the same compound, the minimum inhibitory concentration (MIC) against Escherichia coli [8], in the data set on Escherichia coli [9], in the data set on Klebsiella pneumoniae [10] and against Pseudomonas aeruginosa [11] was over 128 µg/mL throughout.
On to `CS(=O)(=O)Nc1cccc(-c2nc3ccccc3n2CC2CCCCC2)c1`, for which the MIC in the data set with Escherichia coli [1] amounted to 16 µg/mL.
Same read-out and setting: next, `Cc1ccc(Cn2c(-c3cccc(C#N)c3)nc3ccccc32)cc1`: 16 µg/mL; `CS(=O)(=O)Nc1cccc(-c2nc3ccccc3n2Cc2ccc(Cl)cc2)c1`: 8 µg/mL.
Still for that read-out and setting: next, `CC(=O)Nc1cccc(-c2nc3ccccc3n2Cc2ccc(C)cc2)c1`: over 128 µg/mL.
For the compound `CS(=O)(=O)Nc1cccc(-c2nc3ccccc3n2Cc2ccc(C#N)cc2)c1`, the MIC in the data set on Escherichia coli [1] worked out at 64 µg/mL.
Still for that read-out and setting: as for `CS(=O)(=O)Nc1cccc(-c2nc3ccccc3n2Cc2ccccc2)c1`, the figure is 16 µg/mL; as for `CS(=O)(=O)Nc1cccc(-c2nc3ccccc3n2Cc2ccc(Cl)cc2Cl)c1`, 8 µg/mL.
For `Cc1ccc(Cn2c(-c3cccc(C(F)(F)F)c3)nc3ccccc32)cc1`, in the data set on Escherichia coli [1], the MIC was over 128 µg/mL.
Still for that read-out and setting: next, `Cc1ccc(Cn2c(-c3cccc([N+](=O)[O-])c3)nc3ccccc32)cc1`: over 128 µg/mL; `Cc1ccc(Cn2c(-c3ccc(C(F)(F)F)cc3)nc3ccccc32)cc1`: 128 µg/mL; `CS(=O)(=O)Nc1cccc(-c2nc3ccccc3n2Cc2cccc(F)c2)c1`: 64 µg/mL.
Take `CS(=O)(=O)Nc1cccc(-c2nc3ccccc3n2Cc2ccc(Br)cc2)c1`: the MIC with Escherichia coli [1] worked out at 4 µg/mL.
Turning to `Cc1ccc(Cn2c(-c3cccc(N)c3)nc3ccccc32)cc1`, in the data set on Escherichia coli [1], the minimum inhibitory concentration (MIC) was found to be 4 µg/mL.
Still for that read-out and setting: as for `Cc1ccc(Cn2c(-c3ccc(Cl)cc3)nc3ccccc32)cc1`, the figure is over 128 µg/mL; as for `CS(=O)(=O)Nc1cccc(-c2nc3ccccc3n2Cc2cccc(C#N)c2)c1`, over 128 µg/mL.
Same read-out and setting: next, `Cc1ccc(Cn2c(-c3ccc(OC(F)(F)F)cc3)nc3ccccc32)cc1`: over 128 µg/mL; `Nc1cccc(-c2nc3ccccc3n2Cc2ccc(C(F)(F)F)cc2)c1`: 8 µg/mL.
With `CS(=O)(=O)Nc1cccc(-c2nc3ccccc3n2Cc2ccc(OC(F)(F)F)cc2)c1`, the minimal inhibitory concentration (MIC) in the data set with Escherichia coli [1] was over 128 µg/mL.
For the compound `FC(F)(F)c1ccc(Cn2c(-c3ccccc3)nc3ccccc32)cc1`, the MIC with Escherichia coli [1] was found to be 8 µg/mL.
Same read-out and setting: as for `CS(=O)(=O)Nc1cccc(-c2nc3ccccc3n2Cc2ccc(F)cc2)c1`, the figure is 32 µg/mL.
Still for that read-out and setting: as for `CS(=O)(=O)Nc1cccc(-c2nc3ccccc3n2Cc2cccc3ccccc23)c1`, the figure is over 128 µg/mL; as for `Cc1ccc(Cn2c(-c3ccc(C#N)cc3)nc3ccccc32)cc1`, over 128 µg/mL; as for `Cc1cccc(Cn2c(-c3cccc(NS(C)(=O)=O)c3)nc3ccccc32)c1`, 16 µg/mL.
As to `Cc1ccc(Cn2c(-c3cccc(NS(C)(=O)=O)c3)nc3ccccc32)cc1`, the minimal inhibitory concentration (MIC) was over 128 µg/mL against Acinetobacter baumannii [2]; over 128 µg/mL against Klebsiella pneumoniae [3]; 16 µg/mL in the data set with Pseudomonas aeruginosa [4]; 2 µg/mL with Escherichia coli [1]; 16 µg/mL with Escherichia coli [5]; 8 µg/mL in the data set on Acinetobacter baumannii [6]. Further, the MIC in the data set on Escherichia coli [7] is over 128 µg/mL; against Escherichia coli [8], over 128 µg/mL; in the data set with Escherichia coli [9], 16 µg/mL; with Klebsiella pneumoniae [10], 8 µg/mL; in the data set on Pseudomonas aeruginosa [11] it was over 128 µg/mL. For the same compound, the Activity entry with Caco-2 and in the data set with Vero was “Non-Toxic” each time.
On to `CS(=O)(=O)Nc1cccc(-c2nc3ccccc3n2Cc2ccc(Cl)c(Cl)c2)c1`, for which the minimum inhibitory concentration (MIC) in the data set on Escherichia coli [1] is 8 µg/mL.
Regarding `Nc1cccc(-c2nc3ccccc3n2Cc2ccc(Cl)c(Cl)c2)c1`, in the data set on Escherichia coli [1], the MIC worked out at 4 µg/mL.
The same measure, in the same setting: as for `CS(=O)(=O)Nc1cccc(-c2nc3ccccc3n2Cc2cccc(Cl)c2)c1`, the figure is 16 µg/mL; as for `CS(=O)(=O)Nc1cccc(-c2nc3ccccc3n2Cc2ccc(C(F)(F)F)cc2)c1`, 16 µg/mL.
Consider `Cc1ccc(Cn2c(-c3ccc(NS(C)(=O)=O)cc3)nc3ccccc32)cc1`, for which, in the data set on Escherichia coli [1], the MIC is over 128 µg/mL.
With `CC[C@H]1OC(=O)[C@H](C)[C@@H](O[C@H]2C[C@@](C)(OC)[C@@H](O)[C@H](C)O2)[C@H](C)[C@@H](O[C@@H]2O[C@H](C)C[C@H](N(C)C)[C@H]2O)[C@](C)(O)C[C@@H](C)C(=O)[C@H](C)[C@@H](O)[C@]1(C)O` [ERYTHROMYCIN], the MIC is 16 µg/mL (≈ 21.8 µM) in the data set on Acinetobacter baumannii [2]; 64 µg/mL (≈ 87.2 µM) in the data set on Klebsiella pneumoniae [3]; 2 µg/mL in the data set on Pseudomonas aeruginosa [4]; 1 µg/mL with Escherichia coli [5]; 0.5 µg/mL in the data set with Acinetobacter baumannii [6]; 16 µg/mL (≈ 21.8 µM) with Escherichia coli [7]. Also, the MIC with Escherichia coli [8] turned out to be 16 µg/mL (≈ 21.8 µM); in the data set with Escherichia coli [9], 1 µg/mL; with Klebsiella pneumoniae [10], 2 µg/mL; against Pseudomonas aeruginosa [11], 64 µg/mL (≈ 87.2 µM).
`CC(=O)NC[C@H]1CN(c2ccc(N3CCOCC3)c(F)c2)C(=O)O1` [LINEZOLID]: the MIC with Acinetobacter baumannii [2] was over 128 µg/mL; against Klebsiella pneumoniae [3], over 128 µg/mL; with Pseudomonas aeruginosa [4], over 128 µg/mL; in the data set on Escherichia coli [1] it was 8 µg/mL; with Escherichia coli [5], 128 µg/mL; in the data set on Acinetobacter baumannii [6], over 128 µg/mL. Besides, the MIC in the data set with Escherichia coli [7] is 128 µg/mL (≈ 379 µM); in the data set with Escherichia coli [8], 128 µg/mL (≈ 379 µM); in the data set on Escherichia coli [9] it was 128 µg/mL; in the data set with Klebsiella pneumoniae [10], over 128 µg/mL; against Pseudomonas aeruginosa [11], over 128 µg/mL.
